# According to paper PMC7836466, “Putative ligand binding sites of two functionally characterized bark beetle odorant receptors” (BMC Biology, 2021):
# Key:
# [1] = target: T1, ItypOR46 (Ips typographus, UniProt A0A7L8XZ66); assay: two-electrode voltage clamp dose-response in Xenopus oocytes (secondary response; not significant in HEK cells); type: cell-based
# T1 construct: with ItypOrco
# T1 sequence (A0A7L8XZ66 1-408): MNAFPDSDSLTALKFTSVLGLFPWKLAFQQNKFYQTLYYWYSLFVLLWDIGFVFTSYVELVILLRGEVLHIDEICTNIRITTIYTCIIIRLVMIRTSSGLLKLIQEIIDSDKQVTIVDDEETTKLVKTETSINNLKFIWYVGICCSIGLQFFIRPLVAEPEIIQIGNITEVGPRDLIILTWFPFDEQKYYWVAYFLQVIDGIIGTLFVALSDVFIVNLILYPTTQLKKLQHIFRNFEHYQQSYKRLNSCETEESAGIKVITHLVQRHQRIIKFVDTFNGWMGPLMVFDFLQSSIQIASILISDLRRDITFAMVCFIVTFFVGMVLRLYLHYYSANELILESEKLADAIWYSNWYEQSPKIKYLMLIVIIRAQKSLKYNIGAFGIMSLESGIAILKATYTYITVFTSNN
# [2] = target: T2, ItypOR49 (Ips typographus, UniProt A0A7L8XYT4); assay: calcium fluorescence dose-response in TREx/HEK293 cells; type: cell-based
# T2 construct: gene OR49; full-length, N-terminal V5 tag; with ItypOrco
# T2 sequence (A0A7L8XYT4 1-406): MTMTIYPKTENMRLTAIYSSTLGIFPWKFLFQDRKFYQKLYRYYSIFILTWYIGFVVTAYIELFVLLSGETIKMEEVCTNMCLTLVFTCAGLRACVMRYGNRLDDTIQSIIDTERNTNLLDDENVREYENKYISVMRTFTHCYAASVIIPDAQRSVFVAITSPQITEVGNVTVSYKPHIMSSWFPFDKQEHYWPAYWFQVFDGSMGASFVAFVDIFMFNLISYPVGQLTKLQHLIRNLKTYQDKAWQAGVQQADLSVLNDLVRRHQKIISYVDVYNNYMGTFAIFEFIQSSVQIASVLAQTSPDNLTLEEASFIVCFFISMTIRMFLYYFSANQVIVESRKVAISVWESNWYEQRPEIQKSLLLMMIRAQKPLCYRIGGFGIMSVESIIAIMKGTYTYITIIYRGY
# T2 sequence (A0A7L8XYY7 1-480 partner): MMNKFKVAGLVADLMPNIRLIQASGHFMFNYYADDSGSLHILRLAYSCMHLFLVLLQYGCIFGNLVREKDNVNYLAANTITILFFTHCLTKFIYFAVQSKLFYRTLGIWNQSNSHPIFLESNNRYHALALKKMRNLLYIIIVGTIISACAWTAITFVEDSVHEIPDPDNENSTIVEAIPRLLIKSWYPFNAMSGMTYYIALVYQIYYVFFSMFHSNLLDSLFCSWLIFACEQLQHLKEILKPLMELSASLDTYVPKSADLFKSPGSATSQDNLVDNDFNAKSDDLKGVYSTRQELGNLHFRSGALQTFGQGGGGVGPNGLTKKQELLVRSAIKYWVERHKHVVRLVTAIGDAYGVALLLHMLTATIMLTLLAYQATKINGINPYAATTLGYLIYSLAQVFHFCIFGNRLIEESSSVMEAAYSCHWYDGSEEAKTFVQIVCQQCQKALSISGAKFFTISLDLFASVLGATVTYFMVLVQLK
# [3] = tested on: T3, ItypOR46; assay: calcium fluorescence assay in TREx/HEK293 cells; also Xenopus oocyte two-electrode voltage clamp; site-directed mutagenesis; type: cell-based, Ips typographus
# T3 construct: gene OR46; full-length, N-terminal V5 tag; with ItypOrco
# [4] = target: T4, ItypOrco (Ips typographus, UniProt A0A7L8XYY7); assay: calcium fluorescence dose-response in TREx/HEK293 cells expressing only ItypOrco; type: cell-based
# T4 construct: full-length, N-terminal c-Myc tag
# T4 sequence (A0A7L8XYY7 1-480): T2 sequence (A0A7L8XYY7 1-480 partner)
structure (smiles),measurement,setting,value
C=CC(=C)C[C@@H](O)C=C(C)C [(R)-(−)-ipsdienol],two-electrode voltage clamp dose-response in Xenopus oocytes (secondary response),[1],secondary response of ItypOR46 to racemic ipsdienol is mainly triggered by the (R)-(−)-enantiomer
same,EC50,[2],9.47 µM
C=CC(=C)C[C@@H](O)CC(C)C [(S)-(−)-ipsenol],EC50,[3],1.98 µM
CCc1ccc(NC(=O)CSc2nnc(-c3cccnc3)n2CC)cc1 [VUAA1],EC50,[4],24.5 µM
